In patent EP3363436A1, “AGENT FOR TREATING PARASITIC WORM DISEASES” (Haas, Helmut, priority 2017, dated 2018):

Tested on: S. mansoni
Test: Drug testing on schistosomes in vitro (incubation of cultured worms with the substance, morphological assessment)
Format: cell-based
Excerpt: Mirazidien für die Infektion von Wasserschnecken (Biomphalaria glabrata, Stamm Puerto Rico) wurden mittels Standardverfahren aus Gewebe (Leber, Darm) von Syrischen Goldhamstern bzw. Mäusen gewonnen, die mit S. mansoni (Liberian strain bzw. Brasilian strain) infiziert worden waren. Hierzu wurde das Gewebe (freundlicherweise zur Verfügung gestellt von Prof. Dr. Grevelding, Universität Gießen bzw. von Dr. Sombetzki, Universität Rostock) mechanisch zerkleinert und die darin enthaltenen Wurmeier mittels Enzymverdau aus dem Gewebeverband herausgelöst. Nach Zugabe von H2O zu dem Gewebspräzipitat schlüpfen aus den Eiern die Mirazidien. Die Infektion erfolgte separat für jede Schnecke mit 4-7 Mirazidien. Da Licht für die Zerkarien der Schlüsselreiz zum Verlassen der Schnecke ist, wurden die Schnecken in der vierten Woche nach Infektion dunkel gestellt, um ein vorzeitiges Ausschwärmen von Zerkarien zu unterbinden.
6-7 Wochen nach Infektion wurden die infizierten Schnecken aus Beispiel 1 in Wasser mittels einer 60-Watt Glühlampe von oben belichtet, da ab diesem Zeitpunkt Zerkarien die infizierten Schnecken in ausreichender Menge verlassen. Während einer Belichtungsdauer von 2-3 Stunden wurden die aufschwimmenden Zerkarien gesammelt. Nach wiederholtem Waschen und Überführen in Medium erfolgte die Transformation der Zerkarien mechanisch nach Standardverfahren. Dazu erfolgten wiederholte Passagen durch eine Emulsionsnadel, an die zwei Spritzen angeschlossen sind. Die durch die Transformation aus den Zerkarien (Gabelschwanzlarven) entstandenen Schistosomula wurden ebenfalls wiederholt in Medium gewaschen und dabei von den abgescherten Schwänzen getrennt.
Die transformierten Schistosomula wurden nach dem von Basch beschriebenen Verfahren kultiviert (Basch (1981), J Parasitol.; 67: 179-185), wobei das Verfahren leicht modifiziert wurde, wie es bei Reimers beschrieben wurde (Reimers et al. (2015), PLoS Negl Trop Dis 9(3): e0003593). […]

SMILES | Verstärkung der Wirkung von Felodipin (Loperamid given together with Felodipin, in vitro) | Abtöten von Schistosomen (in vitro, Schistosomula, juvenile and adult worms, initially 10 µM (Figures 1-2: 10, 20, 40 µM), 24 h exposure then wash-out, assessed at 4 h, 24 h, 48 h, 72 h and 7 days) | morphologische Veränderungen und Schädigung der Würmer (incubation of parasitic worms with Felodipin in vitro)
CN(C)C(=O)C(CCN1CCC(O)(c2ccc(Cl)cc2)CC1)(c1ccccc1)c1ccccc1 [Loperamid, 4-[4-(4-Chlorphenyl)-4-hydroxypiperidin-1-yl]-N,N-dimethyl-2,2-diphenylbutyramid] | verstärkt Loperamid die Wirkung von Felodipin signifikant | – | –
CCOC(=O)C1=C(C)NC(C)=C(C(=O)OC)C1c1cccc(Cl)c1Cl (racemic) [Felodipin] | – | hochwirksam Schistosomen abtöten | erheblichen morphologischen Veränderungen und irreversiblen Schädigung der Würmer
